Laboratory results as given in patent US6538106B1, “Compositions and methods for treating infections using analogues of indolicidin” (priority 1996, dated 2003).
Structures can show the parent of a compound that is named as a salt. Where two headings read alike, the source gives them in different places. Peptide text beside a SMILES is read from it.

Key:
[1] = Acute single dose toxicity in isotonic saline (ip, iv, sc); assay type: in vivo, Swiss CD1 mice; settings: 5 days
Experimental: The acute, single dose toxicity of various indolicidin analogues is tested in Swiss CD1 mice using various routes of administration. In order to determine the inherent toxicities of the peptide analogues in the absence of any formulation/delivery vehicle effects, the peptides are all administered in isotonic saline with the final pH between 6 and 7.
After administration, the mice are observed for a period of 5 days.

P. aeruginosa [2] = assay: Broth dilution assay (MIC); assay type: cell-based; settings: P. aeruginosa PA004
Experimental: (§1) This assay also uses calcium and magnesium supplemented Mueller Hinton broth as the growth medium. Typically 100 μl of broth is dispensed into each well of a 96-well microtitre plate and 100 μl volumes of two-fold serial dilutions of the peptide analogue are made across the plate. One row of wells receives no peptide and is used as a growth control. Each well is inoculated with approximately 5×10^5 CFU of bacteria and the plate is incubated at 35-37° C. for 16-20 hours.
(§2) For example, MIC values were established for a series of peptide analogues against S. aureus strains.

S. marcescens [3] = assay: Broth dilution assay (MIC); assay type: cell-based; settings: S. marcescens SMS003
Experimental: as §1, §2

K. pneumoniae [4] = assay: Broth dilution assay (MIC); assay type: cell-based; settings: K. pneumoniae KP001
Experimental: as §1, §2

S. aureus [5] = assay: Broth dilution assay (MIC); assay type: cell-based; settings: S. aureus SA002
Experimental: as §1, §2

S. maltophilia [6] = assay: Broth dilution assay (MIC); assay type: cell-based; settings: S. maltophilia SMA002
Experimental: as §1, §2

E. faecalis [7] = assay: Broth dilution assay (MIC); assay type: cell-based; settings: E. faecalis EFS004
Experimental: as §1, §2

E. coli [8] = assay: Broth dilution assay (MIC); assay type: cell-based; settings: E. coli ECO005
Experimental: as §1, §2

S. epidermidis = assay: Broth dilution assay (MIC); assay type: cell-based; settings: S. epidermidis SE005
Experimental: as §1, §2

E. cloacae [9] = assay: Broth dilution assay (MIC); assay type: cell-based; settings: E. cloacae ECL007
Experimental: as §1, §2

A. calcoaceticus [10] = assay: Broth dilution assay (MIC); assay type: cell-based; settings: A. calcoaceticus AC001
Experimental: as §1, §2

E. cloacae [11] = assay: MIC of APS-modified and parent peptides; assay type: cell-based; settings: E. cloacae ECL007
E.coli strain ML-35 = assay type: cell-based; settings: for Growth time of cells at which maximum activity occurs: 50 μg/ml peptide
S. marcescens [12] = assay: MIC of APS-modified and parent peptides; assay type: cell-based; settings: S. marcescens SMS003
S. maltophilia [13] = assay: MIC of APS-modified and parent peptides; assay type: cell-based; settings: S. maltophilia SMA002
[14] = tested on: MSSA (Smith, ATCC # 19640); assay: MSSA infection, mouse survival; assay type: in vivo, mice; settings: formulation D
MRSA (ATCC # 33591) = assay: MRSA infection, mouse survival; assay type: in vivo, mice; settings: for Percentage of Animals Surviving, Treatment: iv, formulation D
S. aureus [15] = assay: MIC of APS-modified and parent peptides; assay type: cell-based
Experimental: (§3) All biological assays that compare APS-modified peptides with unmodified peptides are performed on an equimolar ratio. The concentration of APS-modified peptides can be determined by spectrophotometric measurement, which is used to normalize concentrations for biological assays.
(§4) APS-modified peptides are at least as potent as the parent peptides in in vitro assays performed as described herein. MIC values against gram positive bacteria are presented for several APS-modified peptides and compared with the values obtained using the parent peptides (Table 22).

E. faecalis [16] = assay: MIC of APS-modified and parent peptides; assay type: cell-based
Experimental: as §3, §4

E. coli [17] = assay: MIC of APS-modified and parent peptides; assay type: cell-based; settings: E. coli ECO005
P. aeruginosa [18] = assay: MIC of APS-modified and parent peptides; assay type: cell-based; settings: P. aeruginosa PA004
Liposome dye release = assay type: biochemical
Experimental: In this example, a dye pair consisting of the fluorescent molecule 8-aminonapthalene-1,3,6-trisulfonic acid (ANTS) and its quencher molecule p-xylene-bis-pyridinium bromide (DPX) are used. The mixture of free dye molecules, dye free liposomes, and liposomes containing encapsulated ANTS-DPX are separated by size exclusion chromatography. In the assay, the test peptide is incubated with the ANTS-DPX containing liposomes and the fluorescence due to ANTS release to the outside of the liposome is measured over time.
Using this assay, peptide activity, measured by dye release, is shown to be extremely sensitive to the composition of the liposomes at many liposome to peptide ratios (L/P) (FIG. 7). […] This […] selectivity may mimic that observed […] for bacterial cells in the presence of mammalian cells.
ANTS/DPX can be replaced with fluorescein isothiocyanate-labeled dextran (FD-4), molecular weight 4,400, in the egg PC liposomes.

[19] = tested on: S. epidermidis (ATCC # 12228); assay: S. epidermidis infection, mouse survival; assay type: in vivo, mice
A. calcoaceticus [20] = assay: MIC of APS-modified and parent peptides; assay type: cell-based; settings: A. calcoaceticus AC002
K. pneumoniae [21] = assay: MIC of APS-modified and parent peptides; assay type: cell-based; settings: K. pneumoniae KP001

Compound	MIC (P. aeruginosa [2]) [µg/mL]	MIC (S. marcescens [3]) [µg/mL]	MIC (K. pneumoniae [4]) [µg/mL]	MIC (S. aureus [5]) [µg/mL]	MIC (S. maltophilia [6]) [µg/mL]	MIC (E. faecalis [7]) [µg/mL]	MIC (E. coli [8]) [µg/mL]	MIC (S. epidermidis) [µg/mL]	MIC (E. cloacae [9]) [µg/mL]	MIC (A. calcoaceticus [10]) [µg/mL]	Corrected MIC (S. marcescens [12]) [µg/mL]	Corrected MIC (S. maltophilia [13]) [µg/mL]	Corrected MIC (S. aureus [15]; S. aureus SA010) [µg/mL]	Corrected MIC (S. aureus [15]; S. aureus SA014) [µg/mL]	Corrected MIC (S. aureus [15]; S. aureus SA018) [µg/mL]	Corrected MIC (S. aureus [15]; S. aureus SA025) [µg/mL]	Corrected MIC (S. aureus [15]; S. aureus SA093) [µg/mL]	Corrected MIC (E. faecalis [16]; E. faecalis EFS004) [µg/mL]	Corrected MIC (E. faecalis [16]; E. faecalis EFS008) [µg/mL]	Corrected MIC (E. coli [17]) [µg/mL]	other results
CC[C@H](C)[C@H](N)C(=O)N[C@@H](CC(C)C)C(=O)N[C@@H](CCCCN)C(=O)N[C@@H](CCCCN)C(=O)N[C@@H](Cc1c[nH]c2ccccc12)C(=O)N1CCC[C@H]1C(=O)N[C@@H](Cc1c[nH]c2ccccc12)C(=O)N[C@@H](Cc1c[nH]c2ccccc12)C(=O)N1CCC[C@H]1C(=O)N[C@@H](Cc1c[nH]c2ccccc12)C(=O)N[C@@H](CCCNC(=N)N)C(=O)N[C@@H](CCCNC(=N)N)C(=O)N[C@@H](CCCCN)C(N)=O [MBI 11CN HCl, I L K K W P W W P W R R K] (H-ILKKWPWWPWRRK-NH2; N-terminus assumed)																					LD90-100 [1]: 8.0 mg/kg
I L K K I P I I P I R R K [MBI 11A2CN]	>256	>256	>256	>256	>256	>256	>256	256	>256	>256											
I L K K W P W W P W R R K [MBI 11CN]											>128	128	2	16	64	4	2	8	64	16	Corrected MIC (E. cloacae [11]): >128 µg/mL; ONPG hydrolysis diminished, cells pre-incubated with valinomycin vs no pre-incubation (E.coli strain ML-35): approximately 50%; mice rescued from MSSA infection ([14]; 35.7 mg/kg ip, 60 minutes post-infection): 100%; activity at lower dose levels ([14]; dose levels lower than 35.7 mg/kg ip): little or no activity; survival of mice (MRSA (ATCC # 33591); 1 mg/kg (20 min) protocol: five […] iv injections at −10, −5, 0, +5, +10 mins): delayed the death of the mice to a significant extent; survival of mice (MRSA (ATCC # 33591); 1 mg/kg (2 hr) protocol: five […] iv injections 1 hour apart): no improvement in survivability over the negative control; survival of mice (MRSA (ATCC # 33591); 5 mg/kg protocol: three 5.5 mg/kg iv injections at −5, +55, +115 mins): no improvement in survivability over the negative control; Percentage of Animals Surviving, Treatment (MRSA (ATCC # 33591); 6 hours post-infection): 70%; Percentage of Animals Surviving, Treatment (MRSA (ATCC # 33591); 10 hours post-infection): 30%; Corrected MIC (S. aureus [15]; S. aureus SA011): 8 µg/mL; Corrected MIC (E. faecalis [16]; E. faecalis EFS001): 32 µg/mL; Corrected MIC (P. aeruginosa [18]): >128 µg/mL; Release of FD-4 (fluorescein isothiocyanate-labeled dextran, MW 4,400) (Liposome dye release; egg PC liposomes): No increase in FD-4 fluorescence is detected; Membrane permeabilizing activity (ANTS/DPX dye release) (Liposome dye release; egg PC liposomes with cholesterol added, even at very high lipid to peptide molar ratios): virtually abolishes membrane permeabilizing activity; survival of mice ([19]; iv, formulation D, treatment 15 minutes post-infection): Efficacy is observed at all three dose levels; survival of mice ([19]; iv, formulation D, treatment 30 minutes post-infection): less activity; survival of mice ([19]; iv, formulation D, treatment 60 minutes post-infection): no significant effect; survival of mice ([19]; single iv injection of […] 15 minutes post-infection): best survival rate; Corrected MIC (A. calcoaceticus [20]): 4 µg/mL; Corrected MIC (K. pneumoniae [21]): 128 µg/mL
I L P W K W P W W P W R R [MBI 10CN]	>256	>256	64	16	64	64	64	8	256	64											ONPG hydrolysis diminished, cells pre-incubated with valinomycin vs no pre-incubation (E.coli strain ML-35): approximately 50%; survival at lower doses ([14]; below 14.5 mg/kg ip): clear dose-dependent survival
I L R R W P W W P W R K [MBI 11B2CN]	256	>256	>256	32	32	64	64	4	>256	128											
I L R R W P W W P W R R K [MBI 11B1CN]	64	>256	>256	32	32	64	64	4	>256	64	>128	128	1	8	16	1	1	8	32	8	Corrected MIC (P. aeruginosa [18]): 128 µg/mL; Corrected MIC (A. calcoaceticus [20]): 2 µg/mL
I L R W P W W P W R R K [MBI 11B7CN]	256	>256	256	16	32	64	64	4	>256	64		32						8	32	8	Growth time of cells at which maximum activity occurs (E.coli strain ML-35; early mid-log): 140 min; Growth time of cells at which maximum activity occurs (E.coli strain ML-35; late mid-log): 230 min; Effect on membrane permeabilizing activity (E.coli strain ML-35; peptide pre-incubated in HEPES/sucrose buffer with 5 mM Mg2+): significant inhibition; Effect on membrane permeabilizing activity (E.coli strain ML-35; peptide pre-incubated in HEPES/sucrose buffer with 150 mM NaCl): significant inhibition; Corrected MIC (E. faecalis [16]; E. faecalis EFS001): 8 µg/mL
i L K K W P W W P W R R k [MBI 11E3CN]											>128	64	1	4	16	1	1	2	16	8	Corrected MIC (E. cloacae [11]): >128 µg/mL; Corrected MIC (S. aureus [15]; S. aureus SA011): 4 µg/mL; Corrected MIC (E. faecalis [16]; E. faecalis EFS001): 8 µg/mL; Corrected MIC (P. aeruginosa [18]): 128 µg/mL; Corrected MIC (A. calcoaceticus [20]): 2 µg/mL; Corrected MIC (K. pneumoniae [21]): 8 µg/mL
